In ChEMBL document CHEMBL5390272, “Discovery of a potent and selective human AC2 inhibitor based on 7-deazapurine analogues of adefovir” (Bioorg Med Chem, 2023):

Legend:
[1] = Inhibition of Bordetella pertussis Adenylate cyclase toxin in mouse J774.A1 cells preincubated for 5 hrs followed by ACT addition and measured after 30 mins by CatchPointcAMP immunoassay method; format: cell-based
[2] = Cytotoxicity against mouse J774.A1 cells assessed as cell viability at 10 uM incubated for 5 hrs by Cell Titer-Glo Luminescent Cell Viability assay relative to control; format: toxicity, cell-based; conditions: read-out: Activity
[3] = tested on: HEK293; assay: Cytotoxicity against AC1 expressed HEK293 cells by CellTiter-Glo 2.0 assay relative to control; format: toxicity, cell-based; set-up: concentration or dose not given beside the values; conditions: human
[4] = biological target: Adenylate cyclase type 2 (Homo sapiens, UniProt Q08462); assay: Inhibition of human adenylate cyclase 2 expressed in ACdelta 3/6 knockout HEK293 cells assessed as cyclic AMP accumulation incubated for 30 min followed by FSK stimulation by HTR-FRET assay; format: cell-based
Chain of Adenylate cyclase type 2 (Q08462 whole entry): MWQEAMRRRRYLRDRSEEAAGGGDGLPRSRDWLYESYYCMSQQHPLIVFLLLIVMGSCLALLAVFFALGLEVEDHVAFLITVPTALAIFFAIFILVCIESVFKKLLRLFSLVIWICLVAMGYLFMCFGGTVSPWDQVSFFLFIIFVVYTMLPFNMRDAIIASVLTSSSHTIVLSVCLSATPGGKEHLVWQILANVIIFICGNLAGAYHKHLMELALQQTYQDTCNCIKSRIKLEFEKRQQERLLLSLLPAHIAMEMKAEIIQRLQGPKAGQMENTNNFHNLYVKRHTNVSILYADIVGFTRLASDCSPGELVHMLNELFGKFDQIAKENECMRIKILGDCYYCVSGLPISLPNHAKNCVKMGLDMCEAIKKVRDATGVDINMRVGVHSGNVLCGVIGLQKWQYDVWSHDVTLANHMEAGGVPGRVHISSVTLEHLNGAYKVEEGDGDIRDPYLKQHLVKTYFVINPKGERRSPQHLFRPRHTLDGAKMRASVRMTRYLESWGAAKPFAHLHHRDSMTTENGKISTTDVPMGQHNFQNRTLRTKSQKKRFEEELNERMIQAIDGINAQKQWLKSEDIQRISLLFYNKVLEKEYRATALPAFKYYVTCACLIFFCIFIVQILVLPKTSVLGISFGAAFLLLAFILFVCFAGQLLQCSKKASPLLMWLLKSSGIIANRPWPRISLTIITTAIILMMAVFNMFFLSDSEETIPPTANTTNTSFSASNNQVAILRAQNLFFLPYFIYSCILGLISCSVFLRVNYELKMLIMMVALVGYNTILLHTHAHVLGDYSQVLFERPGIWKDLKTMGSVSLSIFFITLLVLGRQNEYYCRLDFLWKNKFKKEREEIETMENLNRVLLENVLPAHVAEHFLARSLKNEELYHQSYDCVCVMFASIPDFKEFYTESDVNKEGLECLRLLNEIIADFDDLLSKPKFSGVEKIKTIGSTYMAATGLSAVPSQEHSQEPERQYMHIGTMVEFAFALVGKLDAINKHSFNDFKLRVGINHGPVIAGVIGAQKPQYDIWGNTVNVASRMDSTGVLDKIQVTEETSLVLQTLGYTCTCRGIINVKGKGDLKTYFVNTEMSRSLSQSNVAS

[5] = biological target: D(1A) dopamine receptor (Homo sapiens, UniProt P21728); assay: Inhibition of human D1 receptor expressed in HEK293 cells assessed as cyclic AMP accumulation incubated for 1 hr in presence of dopamine by HTR-FRET assay; format: functional, cell-based
Chain of D(1A) dopamine receptor (P21728 whole entry): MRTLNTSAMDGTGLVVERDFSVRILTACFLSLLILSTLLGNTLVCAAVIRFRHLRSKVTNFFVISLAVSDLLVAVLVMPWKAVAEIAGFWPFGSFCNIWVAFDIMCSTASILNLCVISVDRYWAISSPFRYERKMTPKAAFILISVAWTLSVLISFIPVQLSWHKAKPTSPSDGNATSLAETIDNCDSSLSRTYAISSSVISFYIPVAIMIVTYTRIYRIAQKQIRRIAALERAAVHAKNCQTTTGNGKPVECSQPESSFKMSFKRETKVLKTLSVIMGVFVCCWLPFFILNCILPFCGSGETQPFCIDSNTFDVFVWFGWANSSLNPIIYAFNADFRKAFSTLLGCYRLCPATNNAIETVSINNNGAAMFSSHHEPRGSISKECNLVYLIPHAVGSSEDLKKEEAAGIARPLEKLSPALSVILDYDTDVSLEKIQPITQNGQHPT

[6] = tested on: NHDF; assay: Cytotoxicity against human NHDF cells by CellTiter-Glo 2.0 assay; format: toxicity, cell-based
[7] = tested on: HL-60; assay: Cytotoxicity against human HL-60 cells by CellTiter-Glo 2.0 assay; format: functional, cell-based
[8] = tested on: HeLa S3; assay: Cytotoxicity against human HeLa S3 cells by CellTiter-Glo 2.0 assay; format: functional, cell-based
[9] = tested on: CCRF-CEM; assay: Cytotoxicity against human CCRF-CEM cells by CellTiter-Glo 2.0 assay; format: functional, cell-based
[10] = tested on: HepG2; assay: Cytotoxicity against human HepG2 cells by CellTiter-Glo 2.0 assay; format: functional, cell-based

CC(C)OC(=O)[C@H](Cc1ccccc1)NP(=O)(COCCn1cc(-c2cccc(-c3noc(=O)[nH]3)c2)c2c(N)ncnc21)N[C@@H](Cc1ccccc1)C(=O)OC(C)C
IC50 [1]: > 10 µM | viability at 5 h, 10 µM [2]: 114% | Activity [3]: 89% | IC50 [4]: 4.45 µM | IC50 [5]: > 10 µM | IC50 [6]: > 10 µM | IC50 [7]: 10 µM | IC50 [8]: > 10 µM | IC50 [9]: > 10 µM | IC50 [10]: > 10 µM
